From ChEMBL document CHEMBL4706696, “3-Functionalised benzenesulphonamide based 1,3,4-oxadiazoles as selective carbonic anhydrase XIII inhibitors: Design, synthesis and biological evaluation” (Bioorg Med Chem Lett, 2021)

Tests used:
Carbonic anhydrase 9 = Carbonic anhydrase 9 (Homo sapiens, UniProt Q16790); test: Inhibition of recombinant human carbonic anhydrase 9 by stopped flow CO2 hydrase assay
Carbonic anhydrase 2 = Carbonic anhydrase 2 (Homo sapiens, UniProt P00918); test: Inhibition of recombinant human carbonic anhydrase 2 by stopped flow CO2 hydrase assay
Carbonic anhydrase 1 = Carbonic anhydrase 1 (Homo sapiens, UniProt P00915); test: Inhibition of recombinant human carbonic anhydrase 1 by stopped flow CO2 hydrase assay
Chain of Carbonic anhydrase 1 (P00915 whole entry): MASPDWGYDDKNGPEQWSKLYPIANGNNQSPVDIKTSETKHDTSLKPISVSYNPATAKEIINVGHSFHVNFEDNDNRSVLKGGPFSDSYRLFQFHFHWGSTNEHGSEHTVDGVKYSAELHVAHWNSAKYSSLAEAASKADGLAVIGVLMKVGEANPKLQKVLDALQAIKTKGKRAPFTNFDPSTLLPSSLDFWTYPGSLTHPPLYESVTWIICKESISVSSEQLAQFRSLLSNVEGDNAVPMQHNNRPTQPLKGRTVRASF

Carbonic anhydrase 13 = Carbonic anhydrase 13 (Homo sapiens, UniProt Q8N1Q1); test: Inhibition of recombinant human carbonic anhydrase 13 by stopped flow CO2 hydrase assay
Chain of Carbonic anhydrase 13 (Q8N1Q1 whole entry): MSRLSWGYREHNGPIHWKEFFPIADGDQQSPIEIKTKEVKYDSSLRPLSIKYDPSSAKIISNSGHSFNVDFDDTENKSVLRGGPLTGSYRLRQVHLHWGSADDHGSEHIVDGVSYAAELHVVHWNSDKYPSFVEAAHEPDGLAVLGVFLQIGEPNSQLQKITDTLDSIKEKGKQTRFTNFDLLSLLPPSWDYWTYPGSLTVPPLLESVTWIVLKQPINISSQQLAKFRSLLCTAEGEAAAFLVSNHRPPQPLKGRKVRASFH

Row | Ki (Carbonic anhydrase 9) | Ki (Carbonic anhydrase 2) | Ki (Carbonic anhydrase 1) | Ki (Carbonic anhydrase 13) | Structure (SMILES)
1 | 0.0683 µM | – | – | – | COc1cc(-c2nnc(-c3cccc(S(N)(=O)=O)c3)o2)cc(OC)c1OC
2 | > 10 µM | > 10 µM | > 10 µM | > 10 µM | COc1ccc(-c2nnc(-c3ccc(C)c(S(N)(=O)=O)c3)o2)c(OC)c1
3 | 0.0571 µM | – | – | – | NS(=O)(=O)c1cccc(-c2nnc(-c3ccc([N+](=O)[O-])cc3)o2)c1
4 | > 10 µM | > 10 µM | > 10 µM | > 10 µM | Cc1ccc(-c2nnc(-c3ccccc3)o2)cc1S(N)(=O)=O
5 | > 10 µM | > 10 µM | > 10 µM | > 10 µM | COc1ccc(-c2nnc(-c3ccccc3)o2)cc1S(N)(=O)=O
6 | 0.044 µM | – | – | – | NS(=O)(=O)c1cccc(-c2nnc(-c3cccc([N+](=O)[O-])c3)o2)c1
7 | > 10 µM | > 10 µM | > 10 µM | > 10 µM | Cc1ccc(-c2nnc(-c3ccc(Cl)cc3)o2)cc1S(N)(=O)=O
8 | 0.0768 µM | – | – | – | COc1ccc(OC)c(-c2nnc(-c3cccc(S(N)(=O)=O)c3)o2)c1

Continued, compound first:

Row | Structure (SMILES) | Ki (Carbonic anhydrase 9) | Ki (Carbonic anhydrase 2) | Ki (Carbonic anhydrase 1) | Ki (Carbonic anhydrase 13)
9 | Cc1ccc(-c2nnc(-c3cccc([N+](=O)[O-])c3)o2)cc1S(N)(=O)=O | > 10 µM | > 10 µM | > 10 µM | > 10 µM
10 | NS(=O)(=O)c1cccc(-c2nnc(-c3cccs3)o2)c1 | 0.0853 µM | – | – | –
11 | COc1ccc(-c2nnc(-c3cccc([N+](=O)[O-])c3)o2)cc1S(N)(=O)=O | > 10 µM | > 10 µM | > 10 µM | > 10 µM
12 | NS(=O)(=O)c1cccc(-c2nnc(-c3ccc(Cl)cc3)o2)c1 | 0.0545 µM | – | – | –
13 | NS(=O)(=O)c1cccc(-c2nnc(-c3ccc(Cl)cc3Cl)o2)c1 | 0.0763 µM | – | – | –
14 | Cc1ccc(-c2nnc(-c3ccc(C#N)cc3)o2)cc1S(N)(=O)=O | > 10 µM | > 10 µM | > 10 µM | > 10 µM
15 | COc1ccc(-c2nnc(-c3ccc(OC)c(S(N)(=O)=O)c3)o2)c(OC)c1 | > 10 µM | > 10 µM | > 10 µM | > 10 µM
16 | NS(=O)(=O)c1cccc(-c2nnc(-c3ccccc3)o2)c1 | 0.108 µM | – | – | –
17 | N#Cc1ccc(-c2nnc(-c3cccc(S(N)(=O)=O)c3)o2)cc1 | 0.0763 µM | – | – | –
18 | COc1ccc(-c2nnc(-c3cccc(S(N)(=O)=O)c3)o2)c(OC)c1 | 0.0822 µM | – | – | –
19 | Cc1ccc(-c2nnc(-c3ccc(Cl)cc3Cl)o2)cc1S(N)(=O)=O | > 10 µM | > 10 µM | > 10 µM | > 10 µM
